The values that follow are results of earlier work, collected in US10646532B2, “Method for preparing water extract of ashwagandha leaves which has enhanced anti-cancer activity utilizing cyclodextrin, and pharmaceutical composition containing ashwagandha leaves” (National Institute of Advanced Industrial Science and …, priority 2014, dated 2020).

For the series, the system named is cancer cells / normal cells. The following applies: in vitro test, background art.

Consider `CC1=C(C)C(=O)OC([C@@H](C)C2(O)CC[C@H]3[C@@H]4[C@@H]5O[C@@H]5C5(O)CC=CC(=O)[C@]5(C)[C@H]4CC[C@@]32C)C1` (stereo partly shown) [withanone], for which the “cytotoxicity to cancer cells versus normal cells” value is reported as “selective cytotoxicity to cancer cells”.
